Here are results for three substances from patent US5628979A, “Reagent for tumor imaging and therapy” (Antisoma Limited, priority 1991, dated 1997).

pIC50: −log10 of the molar value. Read-outs that look alike come from different tables or passages of the source. Where no end group is shown, it is not given here. A value given as a limit tells only on which side of the number the result lay.

Data set [1] concerns tumor associated LDV binding sites. The experiment in a line: Binding to tumor associated LDV binding sites / tumor cells in vivo; transportation and clearance. On the set-up: species or system nude mice. The conditions noted are these: in words. As to the method: (§1) In vivo experiments were performed in nude mice bearing HEp-2 and HT29 tumors obtained by injecting the nude mice subcutaneously in both flanks with from 2 to 5×10^6 HEp-2 and HT29 tumor cells and the tumors allowed to grow for three weeks.
(§2) In these experiments the nude tumor bearing mice divided into five groups were each injected subcutaneously with the ^125 I-labelled peptide
(§3) ^125 I-YGGLDVGLDVGGY (SEQ ID NO. 2).
(§4) (SEQ ID No. 2), and the uptake of labelled peptide measured against time. For this purpose the five groups were killed at intervals of 5 minutes, 30 minutes, 1 hour, 3 hours, and 6 hours after injection. At this time the blood and tumors were separately removed, weighed and counted for radioactivity, as well as samples taken from all major organs. […] At this point peptide uptake was 10.3% id per gram in blood, 4.5% id per gram in HEp-2 tumor and 3.0% id per gram in HT29 tumor.

The test system of data set [2] is VLA-4. The conditions noted are these: in words; expressed in vitro by tumour cells and resting CD4+ T-cells; see Shimizu et al; cited from earlier work.
In data set [3] the test system is activated platelets. As to conditions: Kloczewiak et al, cited from earlier work.
A short description of data set [4]: In vivo uptake of 125I-labelled peptide in blood of tumor-bearing nude mice (Experiment 2). The conditions noted are these: 5 minutes after subcutaneous injection; nude mice bearing HEp-2 and HT29 tumors. The method, then: as §1, §2, §3, §4
Data set [5] concerns HT29 tumor. The experiment in a line: In vivo uptake of 125I-labelled peptide in HT29 tumor borne by nude mice (Experiment 2). As to conditions: 5 minutes after subcutaneous injection. The method, then: as §1, §2, §3, §4
For data set [6], the system named is HEp-2 tumor. The experiment in a line: In vivo uptake of 125I-labelled peptide in HEp-2 tumor borne by nude mice (Experiment 2). As to conditions: 5 minutes after subcutaneous injection. The method, then:
as §1, §2, §3, §4

As to “CS1 sequence of fibronectin: 25-unit oligopeptide having the sequence SEQ ID No. 1 (DELPQLVTLPHPLLHGPEILDVPST)”, the “binding to tumor cells in vivo” value in data set [1] was “bind strongly to tumor cells in vivo”. In addition, the “binding to VLA-4” value in data set [2] is “known to bind to the cell adhesion molecule (CAM) VLA-4”.
As to “HHLQLLKQLLDV [synthetic dodecapeptide, analogue of the γ400-411 residue, containing the LDV triplet (Kloczewiak et al)]”, the pIC50 in data set [3] (Biochemistry 1989, read-out: concentration for 50% inhibition of fibrinogen binding to activated platelets) was below 3.30; in data set [3] (as restated, read-out: concentration necessary to obtain 50% inhibition of fibronectin binding to activated platelets), below 3.30.
On to “^125 I-YGGLDVGLDVGGY: radio-labelled thirteen unit peptide YGGLDVGLDVGGY labelled with 125I (also: 125I radiolabel, position not given here)”, for which the “peptide uptake in blood” value in data set [4] is on record as 10.3 % id per gram. Further, the “peptide uptake in HT29 tumor” value in data set [5] was 3.0 % id per gram. In addition, in data set [6], the “peptide uptake in HEp-2 tumor” value turned out to be 4.5 % id per gram.
